From patent US5059596A, “Azabicyclo compounds” (Roussel Uclaf, priority 1989, dated 1991)
Read-outs that look alike come from different tables or passages of the source.

Columns and labels:
cyclooxygenase = assay: inhibition of eicosanoid synthesis by guinea pig peritoneal neutrophils: cyclooxygenase product (TX B2 and 5-HHT) synthesis; type: cell-based; conditions: [^14 C]-arachidonic acid and calcium ionophore
Description: (§1) The compounds were tested for their activity as inhibitors of the synthesis of eicosanoids by guinea pig peritoneal neutrophils following the addition of [^14 C]-arachidonic acid and calcium ionophore, using a modification of the method published by Harvey et al [J. Pharmacol. Methods, Vol. 9(2), p 147-155 (1983)].

5-lipoxygenase = molecular target: T1, 5-lipoxygenase (Cavia porcellus, UniProt A0A286X958); assay: inhibition of eicosanoid synthesis by guinea pig peritoneal neutrophils: 5-lipoxygenase product (5-HETE) synthesis; type: cell-based; conditions: [^14 C]-arachidonic acid and calcium ionophore
T1 construct: synthesis of eicosanoids by guinea pig peritoneal neutrophils; endogenous in cells; host or cells: guinea pig peritoneal neutrophils
T1 sequence (A0A286X958 1-674): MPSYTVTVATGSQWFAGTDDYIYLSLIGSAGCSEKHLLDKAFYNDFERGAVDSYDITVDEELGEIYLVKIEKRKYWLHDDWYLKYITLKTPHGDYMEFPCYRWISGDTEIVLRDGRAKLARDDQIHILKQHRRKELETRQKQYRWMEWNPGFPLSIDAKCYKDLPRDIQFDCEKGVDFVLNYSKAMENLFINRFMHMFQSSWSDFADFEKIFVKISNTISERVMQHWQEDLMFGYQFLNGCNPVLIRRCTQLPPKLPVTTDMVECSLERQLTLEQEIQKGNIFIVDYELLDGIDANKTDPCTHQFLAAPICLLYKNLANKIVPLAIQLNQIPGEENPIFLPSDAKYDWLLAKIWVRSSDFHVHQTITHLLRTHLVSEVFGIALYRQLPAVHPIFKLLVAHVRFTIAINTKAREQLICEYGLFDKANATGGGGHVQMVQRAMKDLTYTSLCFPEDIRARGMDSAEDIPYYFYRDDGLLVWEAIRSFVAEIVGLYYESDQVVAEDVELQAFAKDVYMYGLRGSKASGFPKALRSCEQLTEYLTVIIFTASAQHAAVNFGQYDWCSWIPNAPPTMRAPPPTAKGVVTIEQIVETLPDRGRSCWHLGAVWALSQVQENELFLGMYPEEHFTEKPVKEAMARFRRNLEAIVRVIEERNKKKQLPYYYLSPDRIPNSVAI
Description: as §1

With `CCSC12ON=C(c3ccc(OC)cc3)N1C(C)(C)C2(C)C` (stereo not drawn) [compound 4, 3-(p-methoxyphenyl)-5,5,6,6-tetramethyl-7-ethylthio-1-oxa-2,4-diazabicyclo[3.2.0]hept-2-ene] the IC50 (cyclooxygenase; 5-HHT synthesis, read-out: IC50 (5-HHT)) was 6.3 µM, the IC50 (cyclooxygenase; TXB2 synthesis, read-out: IC50 (TXB2)) was 5 µM and the IC50 (5-lipoxygenase) was > 100 µM.
